According to patent publication US20080200538A1, “Inhibition of Monocyte Survival, Differentiation, or Proliferation” (The Ohio State University Research Foundation, priority 2005, published 2008):

Legend:
U937 cells = experiment: Cell survival and apoptosis by calcein AM/PI staining; type: cell-based, human; settings: U937, 50 μM
Description: FIG. 2. Apigenin induces cell death in monocytic leukemia cells. THP-1 and U937 leukemia cells were treated for various lengths of time with 50 μM apigenin or left untreated (NT) and stained with calcein AM and PI as described in Material and Methods to evaluate the percentage of cell survival. (A) THP cells after 12 h cells treated with 50 μM apigenin or with DMSO (NT). (B) The percentage of cell survival represented by means ±SEM (N=3).
(§1) To investigate apoptosis, cells were plated at a density of 1×10^6 cells/well. After treatment, cells were collected and washed in PBS. Cells were then incubated in RPMI (no phenol red) and 1 μg/ml calcein AM for 30 min and 5×10−2 ng/ml propidium iodide (PI) for 5 min. Cells were washed twice and resuspended in PBS. Cells were viewed using a fluorescent microscope (Olympus, Melville, N.Y.). At least 200 cells were counted. Cells calcein AM positive (green) in the absence of PI (red) were considered alive while cells undergoing apoptosis are green with red. Number of green cells or green with red cells was counted over total number of cells (green alone and green with red) to express cell survival or apoptotic cell percentage respectively.

caspase-9 = experiment: Caspase-9 activity, LEHD-AFC assay, THP-1 lysates; type: cell-based, human; settings: THP-1, 50 μM apigenin
Description: (§2) FIG. 3. Apigenin induces caspase activation in monocytic leukemia. THP-1 (top) and U937 (bottom) leukemia cells were treated for various lengths of time with 50 μM apigenin or DMSO (NT). (A and C) Caspase-9 activity was determined by the LEHDAFC assay. (B and D) Caspase-3 activity was determined by the DEVD-AFC assay. Data represents means ±SEM (N=3).
(§3) For measurements of caspase activity, cells were plated at a density of 1.5×10^6 cells/well. After treatment, cells extracts were prepared as previously described (Doseff, A. I., Baker J. H., Bourgeois T. A. and Wewers M. D. (2003) Interleukin-4-induced zpoptosis entails caspase activation and suppression of extracellular signal-regulated kinase phosphorylation. Am. J. Resp. Cell Mol. Biol., 29, 367-374). Protein extracts were incubated with 20 μM DEVD-AFC to determine caspase-3 activity or LEHD-AFC to determine caspase-9 activity (Enzyme Systems Products, Livermore, Calif.) in a cytobuffer as previously described (Doseff, A. I., Baker J. H., Bourgeois T. A. and Wewers M. D. (2003) Interleukin-4-induced zpoptosis entails caspase activation and suppression of extracellular signal-regulated kinase phosphorylation. Am. J. Resp. Cell Mol. Biol., 29, 367-374). Levels of released AFC were measured using Cytofluor 400 fluorimeter (Filters: excitation 400 nm, emission 508 nm; Perspective Co., Framingham, Mass.).

caspase-3 [1] = experiment: Caspase-3 activity, DEVD-AFC assay, THP-1 lysates; type: cell-based, human; settings: THP-1, 50 μM apigenin
Description: as §2
FIG. 4. Caspase-3 activation is required for apigenin-induced apoptosis. THP-1 cells were treated for 12 h with 50 μM apigenin alone or pretreated with 20 μM DEVD-FMK for 1 h prior to the addition of apigenin. (A) Cells were then stained with calcein AM and 24 PI and the percentage of apoptotic cells was determined. (B) Lysates from cells treated as described above were used to determined caspase-3 activity by the DEVD-AFC assay. All data represents means ±SEM (N=5).
FIG. 7. Apigenin induced p38 activation is not required for apoptosis. A. Cells were pretreated for 1 h prior to addition of 50 μM apigenin or DMSO (−) with 10 or 25 μM concentrations of SB203580 or DMSO (−) for 12 h. The percentage of apoptotic cells was determined by calcein AM with PI stained cells. Data represents means ±SEM (N=5 p>0.05). B. Lysates from the same treatments were used to determined caspase-3 activity by the DEVD-AFC assay. Data represents means ±SEM (N=5 p>0.05).
For measurements of caspase activity, cells were plated at a density of 1.5×10^6 cells/well. After treatment, cells extracts were prepared as previously described (Doseff, A. I., Baker J. H., Bourgeois T. A. and Wewers M. D. (2003) Interleukin-4-induced zpoptosis entails caspase activation and suppression of extracellular signal-regulated kinase phosphorylation. Am. J. Resp. Cell Mol. Biol., 29, 367-374). […] Levels of released AFC were measured using Cytofluor 400 fluorimeter (Filters: excitation 400 nm, emission 508 nm; Perspective Co., Framingham, Mass.).

caspase-3 [2] = experiment: Caspase-3 activity, DEVD-AFC assay, U937 lysates; type: cell-based, human; settings: U937, 50 μM apigenin; remained high even after 24 h
Description: as §2, §3

Akt = experiment: Western blot of Akt phosphorylation and total Akt in THP-1 cells; type: cell-based, human; settings: THP-1, 50 μM apigenin
Description: FIG. 5. Apigenin affects Akt phosphorylation. THP-1 cells were treated with 50 μM apigenin for different lengths of time. Lysates were separated by SDS-PAGE, transferred and immunoblotted with anti-phospho-Akt (pSer 473), anti-phospho-Akt (pThr 308), total Akt, and â-tubulin antibodies.
FIG. 6. Apigenin induces the activation of p38 and inactivation of Akt. A. THP-1 cells were treated with 50 μM apigenin for various lengths of time. Lysates were separated by SDS-PAGE, transferred and analyzed by immunoblots with anti-phospho-p38 (pp 38) and anti-total-p38 antibodies. B. […] Lysates were analyzed by immunoblotting with anti-phospho-Akt (pSer 473), anti-phospho-p38 (p-p38), and anti-total-p38 antibodies.
Extracts from 3×10^6 cells were prepared by incubating cells for 30 min on ice in lysis buffer (50 mM Tris, 10 mM EDTA 0.5% NP-40, 10 mM Na-glycerophosphate, 5 mM Na-pyrophosphate, 50 mM NaF, 1 mM orthovanadate, 1 mM DTT, 0.1 mM PMSF, 2 μg/ml of protease inhibitors: chymostatin, pepstatin, antipain, and leupeptin). Cell lysates were centrifuged (14,000×g for 10 min at 4° C.) and the supernatants were stored for at −70° C. for future analysis. Equal amounts of protein were loaded and separated by SDS-PAGE, transferred onto nitrocellulose membranes and probed with antibodies of interest followed by horseradish peroxidase conjugated secondary antibody and visualized by enhanced chemiluminescence (Amersham, Arlington Heights, Ill.). Phospho-Ser473-Akt, phospho-Thr308-Alt, total AKT, phospho-p38 and total p38 antibodies were obtained from Cell Signaling (Boston, Mass.). â-tubulin antibody was obtained from Upstate (Charlottesville, Va.).

p38 = experiment: Western blot of p38 phosphorylation in THP-1 cells; type: cell-based, human; settings: THP-1, 50 μM apigenin, after 3 h
Description: A. THP-1 cells were treated with 50 μM apigenin for various lengths of time. Lysates were separated by SDS-PAGE, transferred and analyzed by immunoblots with anti-phospho-p38 (pp 38) and anti-total-p38 antibodies. B. THP-1 cells were treated for 6 hr with 50 μM apigenin alone (lane 2), treated with the apigenin diluent (lane 1), pretreatred with 10 or 25 μM SB203580 for 1 hr prior to the addition of apigenin (lanes 3 and 4) or with the SB203580 inhibitor alone (lanes 5 and 6).
Extracts from 3×10^6 cells were prepared by incubating cells for 30 min on ice in lysis buffer (50 mM Tris, 10 mM EDTA 0.5% NP-40, 10 mM Na-glycerophosphate, 5 mM Na-pyrophosphate, 50 mM NaF, 1 mM orthovanadate, 1 mM DTT, 0.1 mM PMSF, 2 μg/ml of protease inhibitors: chymostatin, pepstatin, antipain, and leupeptin). Cell lysates were centrifuged (14,000×g for 10 min at 4° C.) and the supernatants were stored for at −70° C. for future analysis. Equal amounts of protein were loaded and separated by SDS-PAGE, transferred onto nitrocellulose membranes and probed with antibodies of interest followed by horseradish peroxidase conjugated secondary antibody and visualized by enhanced chemiluminescence (Amersham, Arlington Heights, Ill.). […]

LPS stimulated monocytes = experiment: Cell death of LPS-treated monocytes (calcein AM/PI); type: cell-based; settings: monocytes stimulated with LPS, increasing amount of apigenin
Description: as §1
Apigenin induces cell death on LPS-treated monocytes. Monocytes were stained with calcein AM and PI as described in Material and Methods to evaluate the percentage of cell death and survival. Monocytes freshly isolated (Fresh), treated for 16 h with 10 ng/ml LPS alone, left untreated (NT) or (A) treated with different doses of apigenin, (B) with LPS and apigenin, or (C) with LPS 1 h prior to the addition of apigenin. Values represent the means ±SEM (N=#, *P<0.05 compared to LPS alone).

IL-8 = IL-8 release by LPS stimulated monocytes; type: cell-based

## O=c1cc(-c2ccc(O)cc2)oc2cc(O)cc(O)c12 [apigenin]
U937 cells; 12 h
  decrease in cell survival: 10%
U937 cells; 24 h
  decrease in cell survival: 50%
caspase-9
  caspase-9 activity, time course: observed after 6 h of treatment with apigenin and remained high after 9 h of treatment, decreasing after 12 h
caspase-3 [1]
  caspase-3 activity, time course: detected after 6 h and similarly to caspase-9, the activity was sustained at 9 h, but decreased after 12 h
caspase-3 [2]
  caspase-3 activity, time course: detected at 9 h
Akt; after six hours
  total Akt protein levels: dramatically decreased
Akt; during the first hour
  Akt pSer473 phosphorylation: rapid decrease
Akt; first six hours
  Akt pThr308 phosphorylation: not significantly affected
p38
  phosphorylation of p38: increase
LPS stimulated monocytes
  death of LPS stimulated monocytes: induces the death of such stimulated monocytes in an apigenin-dose dependent manner
IL-8
  release of IL-8: inhibits
